# US20030068615A1, “Polypeptides that bind HIV gp120 and related nucleic acids, antibodies, compositions, and methods of use” (priority 1999, published 2003)
# Where “and” joins values, the source holds several entries; their conditions need not be identical. Identical values can stand only once. Like-named read-outs stand apart in the source and are kept apart here.
# Biological target: HIV-1LAI envelope gp120 (Human immunodeficiency virus type 1 group M subtype B, UniProt P03377)
# Type: binding
# Conditions: for Counts per 20′ Average-background: CCR5 18-mer scan, radiolabeled HIV-1LAI gp120; for Relative % of Control: mean of two syntheses and binding experiments ± average deviation, wild-type = 100%; for number of radioactive decays (counts) counted: human CD4 21-mer scan, empty control 2075
# [1] = STRL33 18-mer scan, background subtracted, first of two count columns
# [2] = STRL33 18-mer scan, background subtracted, second of two count columns
# [3] = Panel F, sequential alanine replacements of CD4 polypeptides, duplicate series, empty control 569
# [4] = Panel E, 9-mers and 12-mers of CD4, empty control 571
# [5] = Panel C, 15-mers and 18-mers of CD4, empty control 556
# [6] = Panel A, 21-mers of CD4, empty control 515 and 617
# [7] = CXCR4 18-mer scan, background subtracted, empty control 0
# [8] = CXCR4 18-mer scan, empty control 412
# [9] = Panel D, 9-mers and 12-mers of CD4, empty control […]
# [10] = Panel B, 15-mers and 18-mers of CD4, empty control 575
sequence,measurement,setting,value
AARLLPPLYSLVFIFGFV [CCR5 segment 29-46],Counts per 20′ Average-background,background subtracted,33 counts per 20′
ACLNPVLYAFVSLKFRKN [STRL33 segment 281-298],radioactive counts recorded in twenty minutes,[1],4173.5 counts
same,radioactive counts recorded in twenty minutes,[2],4515.5 counts
ADYQVSSPIYDINYYTSE [CCR5 (1-18) variant M1A],Relative % of Control,CCR5 (1-18) alanine variants,167 ± 4%
AEGISIYTSDNYTEEMGS [CXCR4 (1-18) variant M1A],Relative % of Control,CXCR4 (1-18) alanine variants,118 ± 18%
AEHDYHEDYGFSSFNDSS,"Binding Results For Window Length (counts bound-background), 9","STRL33 amino terminus, 9-mer starting at the first residue of the printed sequence, background subtracted",354 counts
same,"Binding Results For Window Length (counts bound-background), 12","STRL33 amino terminus, 12-mer starting at the first residue of the printed sequence, background subtracted",697 counts
same,"Binding Results For Window Length (counts bound-background), 15","STRL33 amino terminus, 15-mer starting at the first residue of the printed sequence, background subtracted",1095 counts
same,"Binding Results For Window Length (counts bound-background), 18","STRL33 amino terminus, 18-mer starting at the first residue of the printed sequence, background subtracted",1014 counts
AEQVEFSFPLAFTVE,COUNTS of radiolabeled gp120 retained,"Panel G, alanine replacements and serial truncations (Z) of CD4 polypeptides, empty control 580",18042 counts and 18546 counts
AEVQLLVFGLTANSD,COUNTS of radiolabeled gp120 retained,[3],16220 counts and 14590 counts
AFLQFSKVFLPCMYLVVF [STRL33 segment 25-42],radioactive counts recorded in twenty minutes,[1],1421.5 counts
same,radioactive counts recorded in twenty minutes,[2],1359.5 counts
AFQKASSIV,COUNTS of radiolabeled gp120 retained,[4],595 counts
AFQKASSIVYKK,COUNTS of radiolabeled gp120 retained,[4],597 counts
AFQKASSIVYKKEGE,COUNTS of radiolabeled gp120 retained,[5],544 counts
AFQKASSIVYKKEGEQVE,COUNTS of radiolabeled gp120 retained,[5],514 counts
AFQKASSIVYKKEGEQVEFSF,COUNTS of radiolabeled gp120 retained,[6],3775 counts
AFTVEKLTG,COUNTS of radiolabeled gp120 retained,[4],517 counts
AFTVEKLTGSGE,COUNTS of radiolabeled gp120 retained,[4],511 counts
AFTVEKLTGSGELWW,COUNTS of radiolabeled gp120 retained,[5],586 counts
AFTVEKLTGSGELWWQAE,COUNTS of radiolabeled gp120 retained,[5],788 counts
AFTVEKLTGSGELWWQAERAS [human CD4 226-246],COUNTS of radiolabeled gp120 retained,[6],1739 counts
same,number of radioactive decays (counts) counted,,3992 counts
AFVSLKFRKNFWKLVKDI [STRL33 segment 289-306],radioactive counts recorded in twenty minutes,[1],808.5 counts
same,radioactive counts recorded in twenty minutes,[2],1040.5 counts
AGGFQKHRSLKIIFLVMA,radioactive counts recorded in twenty minutes,[1],340.5 counts
same,radioactive counts recorded in twenty minutes,[2],260.5 counts
AGLLLFIGLGIFFCVRCRHRR,number of radioactive decays (counts) counted,,2099 counts
AHLLQGQSLTLTLES,COUNTS of radiolabeled gp120 retained,[3],8602 counts and 5826 counts
AISDLFFLLTVPFWAHYA [CCR5 segment 73-90],Counts per 20′ Average-background,background subtracted,41 counts per 20′
AIVHATNSQRPRKLLAEK [CXCR4 segment 137-154],radioactive counts recorded in twenty minutes,[7],73 counts
same,radioactive counts recorded in twenty minutes,[8],485 counts
AKRFCKCCSIFQQEAPER [CCR5 segment 317-],Counts per 20′ Average-background,background subtracted,64 counts per 20′
ALAFFHCCLNPILYAFLG [CXCR4 segment 289-306],radioactive counts recorded in twenty minutes,[7],181 counts
same,radioactive counts recorded in twenty minutes,[8],593 counts
ALKTTVILILAFFACWLP [CXCR4 segment 237-254],radioactive counts recorded in twenty minutes,[7],261 counts
same,radioactive counts recorded in twenty minutes,[8],673 counts
ANSDTHLLQ,COUNTS of radiolabeled gp120 retained,[9],642 counts
ANSDTHLLQGQS,COUNTS of radiolabeled gp120 retained,[9],559 counts
ANSDTHLLQGQSLTL,COUNTS of radiolabeled gp120 retained,[10],542 counts
ANSDTHLLQGQSLTLTLE,COUNTS of radiolabeled gp120 retained,[10],1540 counts
APYNIVLLLNTFQEFFGL [CCR5 segment 249-],Counts per 20′ Average-background,background subtracted,1962 counts per 20′
AQNALTSVSRGSSLKILS [CXCR4 segment 313-330],radioactive counts recorded in twenty minutes,[7],147 counts
same,radioactive counts recorded in twenty minutes,[8],559 counts
ASSIVYKKE,COUNTS of radiolabeled gp120 retained,[4],600 counts
ASSIVYKKEGEQ,COUNTS of radiolabeled gp120 retained,[4],523 counts
ASSIVYKKEGEQVEF,COUNTS of radiolabeled gp120 retained,[5],589 counts
ASSIVYKKEGEQVEFSFP,COUNTS of radiolabeled gp120 retained,[5],701 counts
ASSIVYKKEGEQVEFSFPLAF,COUNTS of radiolabeled gp120 retained,[6],25146 counts
ATNSQRPRKLLAEKVVYV,radioactive counts recorded in twenty minutes,[7],78 counts
same,radioactive counts recorded in twenty minutes,[8],490 counts
ATQMTLGFFLPLLTMIVC [STRL33 segment 193-210],radioactive counts recorded in twenty minutes,[1],2365.5 counts
same,radioactive counts recorded in twenty minutes,[2],2444.5 counts
AVFALKARTVTFGVVTSV,Counts per 20′ Average-background,background subtracted,63 counts per 20′
AVRLIFTIMTVYFLFWAP [CCR5 segment 233-],Counts per 20′ Average-background,background subtracted,62 counts per 20′
AVVHAVFALKARTVTFGV,Counts per 20′ Average-background,background subtracted,34 counts per 20′
AYLRACLNPVLYAFVSLK [STRL33 segment 277-294],radioactive counts recorded in twenty minutes,[1],1802.5 counts
same,radioactive counts recorded in twenty minutes,[2],1849.5 counts
AYNQQAKRMTWGKVTSLL [STRL33 segment 137-154],radioactive counts recorded in twenty minutes,[1],55.5 counts
same,radioactive counts recorded in twenty minutes,[2],4.5 counts
CEVEDQKEE,COUNTS of radiolabeled gp120 retained,[9],555 counts
CEVEDQKEEVQL,COUNTS of radiolabeled gp120 retained,[9],561 counts
CEVEDQKEEVQLLVF,COUNTS of radiolabeled gp120 retained,[10],1729 counts
CEVEDQKEEVQLLVFGLT,COUNTS of radiolabeled gp120 retained,[10],3797 counts
CKAVHVIYTVNLYSSVLI,radioactive counts recorded in twenty minutes,[7],243 counts
same,radioactive counts recorded in twenty minutes,[8],655 counts
CKCCSIFQQEAPERASSV [CCR5 segment 321-],Counts per 20′ Average-background,background subtracted,53 counts per 20′
CQLLTGLYFIGFFSGIFF,Counts per 20′ Average-background,background subtracted,489 counts per 20′
CSSSNRLDQAMQVTETLG [CCR5 segment 269-],Counts per 20′ Average-background,background subtracted,90 counts per 20′
CTVLQNQKKVEFKID,COUNTS of radiolabeled gp120 retained,[5],608 counts
CTVLQNQKKVEFKIDIVV,COUNTS of radiolabeled gp120 retained,[5],553 counts
CYSGILKTLLRCRNEKKR,Counts per 20′ Average-background,background subtracted,70 counts per 20′
DAVANWYFGNFLCKAVHV,radioactive counts recorded in twenty minutes,[7],112 counts
same,radioactive counts recorded in twenty minutes,[8],524 counts
DDRYICDRFYPNDLWVVV,radioactive counts recorded in twenty minutes,[7],125 counts
same,radioactive counts recorded in twenty minutes,[8],537 counts
DIGCLPYLGVSHQWKSSE,radioactive counts recorded in twenty minutes,[1],17.5 counts
same,radioactive counts recorded in twenty minutes,[2],78.5 counts
DIVVLAFQK,COUNTS of radiolabeled gp120 retained,[4],686 counts
DIVVLAFQKASS,COUNTS of radiolabeled gp120 retained,[4],746 counts
DIVVLAFQKASSIVY,COUNTS of radiolabeled gp120 retained,[5],776 counts
DIVVLAFQKASSIVYKKE,COUNTS of radiolabeled gp120 retained,[5],660 counts
DIVVLAFQKASSIVYKKEGEQ,COUNTS of radiolabeled gp120 retained,[6],788 counts
DLVFVCTLPFWAYAGIHE [STRL33 segment 77-94],radioactive counts recorded in twenty minutes,[1],1116.5 counts
same,radioactive counts recorded in twenty minutes,[2],1063.5 counts
DLWVVVFQFQHIMVGLIL [CXCR4 segment 193-210],radioactive counts recorded in twenty minutes,[7],422 counts
same,radioactive counts recorded in twenty minutes,[8],834 counts
DQGNFPLII,COUNTS of radiolabeled gp120 retained,[9],662 counts
DQGNFPLIIKNL,COUNTS of radiolabeled gp120 retained,[9],604 counts
DQGNFPLIIKNLKIE,COUNTS of radiolabeled gp120 retained,[10],635 counts
DQGNFPLIIKNLKIEDSD,COUNTS of radiolabeled gp120 retained,[10],598 counts
DQKEEVQLL,COUNTS of radiolabeled gp120 retained,[9],589 counts
DQKEEVQLLVFG,COUNTS of radiolabeled gp120 retained,[9],1624 counts
DQKEEVQLLVFGLTA,COUNTS of radiolabeled gp120 retained,[10],3905 counts
DQKEEVQLLVFGLTANSD,COUNTS of radiolabeled gp120 retained,[10],3317 counts
DRYLAIVHATNSQRPRKL,radioactive counts recorded in twenty minutes,[7],168 counts
same,radioactive counts recorded in twenty minutes,[8],580 counts
DRYLAVVHAVFALKARTV,Counts per 20′ Average-background,background subtracted,62 counts per 20′
DSDTYICEV,COUNTS of radiolabeled gp120 retained,[9],712 counts
DSDTYICEVEDQ,COUNTS of radiolabeled gp120 retained,[9],937 counts
DSDTYICEVEDQKEE,COUNTS of radiolabeled gp120 retained,[10],973 counts
DSDTYICEVEDQKEEVQL,COUNTS of radiolabeled gp120 retained,[10],961 counts
